Experiment [1] has as its target T1, 1,3-dicarbonyl-dioxygenase (Acinetobacter johnsonii, UniProt Q8GNT2). The experiment is described as follows: Substrate spectrum / apparent kinetic constants of purified 1,3-dicarbonyl-dioxygenase (UV assay and oxygen electrode). The settings on record: for KO2: polarographic, estimated from rate of oxygen depletion, substrate 0.5-1 mM; for O2/Substrate: oxygen consumed per substrate, oxygen electrode. As for the experimental part: (§1) The reaction rates were determined by using the microcomputer regression program provided with the spectrophotometer (Winspec) based on the first ten absorbance measurements made at 5-s intervals.
Substrates were dissolved at a concentration of 0.001-1 mM in KH2PO4-buffer, 50 mM, pH 7.5 using a 10 mM stock solution. Duplicate absorption-measurements of 20 different dilutions were performed at 25° C. The molar absorption coefficients were calculated by linear regression.
(§2) Oxygen consumption during the enzyme reaction was measured with an oxygen-electrode-cell (Digital Oxygen System Model 10, Rank Brothers Ltd., Cambridge, England) as described previously (Beechey, R. B. and Ribbons, D. W. (1971). ‘Methods in Microbiology’.V. 6B. Edited by J. R. Norris and D. W. Ribbons. Academic press, London. ‘Oxygen electrode measurements’ (Chapter II) pp. 29-52.). The reaction mixture contained air-saturated KH2PO4-buffer, 50 mM, pH 7.5 at 25° C. (thermostat). The oxygen-electrode was calibrated by the sodium-sulfite-method. Varying concentrations of substrate (0.01-0.3 mM) were added and the resulting decrease of oxygen was determined.
Assuming the Michaelis-Menten-equation, Vmax and Ks values were calculated by non-linear curve-fit by the program microcal-origin. KO2 was estimated by polarographic methods, adding non limiting amounts of substrate (0.5-1 mM) and graphically determining the oxygen concentration at the point of half of the maximum activity. Ks-values were similarly confirmed by polarographic methods, by stepwise addition of substrate to a final concentration of 20-150 μM.

Experiment [2] has as its target wild-type 1,3-dicarbonyl-dioxygenase (Acinetobacter johnsonii, UniProt Q8GNT2). The experiment in a line: Relative activity of wild-type enzyme at non-limiting substrate concentrations. The class given is biochemical. On the procedure:
as §1, §2

The target of experiment [3] is T2, recombinant 1,3-dicarbonyl-dioxygenase (expressed in E.coli) (Acinetobacter johnsonii, UniProt Q8GNT2).
T2 construct: made in house; host or cells: E. coli XL1 Blue, plasmid pMS470 (tac promoter, NdeI/HindIII)
The experiment in a line: Relative activity of recombinant protein at non-limiting substrate concentrations. The class given is biochemical. As for the experimental part: Expression constructs were expressed in E.coli XL1 Blue (Stratagene, La Jolla, Calif.), which was grown to an OD of 1 at 30° C. on rotatory shakers in erlenmeyer flasks, then induced with IPTG (0.3 mM) and incubated for another 5 hours.
as §1, §2

The target in experiment [4] is T1, 1,3-dicarbonyl-dioxygenase. The experiment is described as follows: Products of various substrates determined by HPLC (cleavage stoichiometry, partially purified enzyme). In kind it is biochemical. As to conditions: 25° C., one hour; for Substrate % (remaining): remaining substrate calculated; for Acetate % / Methylglyoxal %: oxygen saturated buffer. An excerpt: The products of the enzyme reaction were identified directly from the reaction mixture by in situ ^1H-NMR-spectroscopy (Pokorny, D., L. Brecker, M. Pogorevc, H. Griengl, W. Steiner, T. Kappe, and D. W. Ribbons. 1999. Proton-Nuclear Magnetic Resonance Analyses of the Substrate Specificity of a β-Ketolase from Pseudomonas putida, Acetopyruvate Hydrolase. J. Bacteriol. 181: 5051-5059.). Therefore a 200 MHz narrow bore magnet (Varian Gemini™ 2000, Varian, Inc., Palo Alto, Calif.) and a 5 mm broadband probe head were used. The NMR tube was rotated at 20 rps. For a lock a D2O vortex capillary was added to avoid ^1H/D exchange reactions. The overwhelming water-signal was suppressed with a presaturation method (Guéron, M., P. Plateau and M. Decorps. 1991. Solvent signal suppression in NMR. Prog. NMR Spectrosc. 23: 135-209. Hore, J. P. 1989. Solvent suppression. p. 64. In N. J. Oppenheimer and J. T. James (eds.), Methods Enzymol. 176. Academic Press, Inc., San Diego.). The following parameters were adjusted for a ^1H-frequency of 200 MHz: presaturation-duration of 1.0 s, ^1H-pulse-angle of 90, an acquisition-time of 2.0 s and a relaxation delay of 1.5 s. 64 Scans were accumulated and after a zero filling to 32 k datapoints the free induction decay was Fourier transformed. The water signal (4.70 ppm) was used as a reference. For standard reaction analytics HPLC-measurements were performed (Hewlett-Packard, column: Aminex-HPX-87H, UV- and RI-detector, eluent Sulfuric acid 0.005 M).
The cleavage-stoichiometry of several non-symmetrical substrates was also investigated, in order to be able to determine the regiospecificity of the enzyme. This was done by conversion of the respective substrate with partially purified enzyme. Methylglyoxal and acetate formed were measured by HPLC. Remaining substrate was calculated.

Experiment [5] deals with T1, 1,3-dicarbonyl-dioxygenase. The class given is biochemical.
Experiment [6] has as its target T1, 1,3-dicarbonyl-dioxygenase. In kind it is biochemical. As for the experimental part: The freshly prepared solutions of the respecitive inhibitors in buffer were added to partially purified enzyme, which then was incubated at room temperature.
The freshly prepared solutions of the respective inhibitors in buffer were added to partially purified enzyme, which then was incubated at room temperature. […] For reactivation, purified enzyme, which had previously been inactivated by incubation with o-phenantroline (1 mM), was incubated with Tris-buffer (20 mM, pH 7.5) containing the respective metal-salts (5 mM).
The source holds these as a separate data set.

[7] abbreviates: apparent, relative to acetylacetone = 1.00, purified wild-type enzyme.
The mark [8] stands for this setting: inhibitor 2.5 mM, 2 min incubation, 0.5 mM acetylacetone, pH 7.5.
[9] abbreviates: inhibitor 2.5 mM, 10 min incubation, 0.5 mM acetylacetone, pH 7.5.

Like-named read-outs stand apart in the source and are kept apart here.

With `O=C1CCCC(=O)C1` [1,3-Cyclohexanedione], in experiment [1], the Vmaxrel. is reported as 0.00 and the “acceptance as substrate (in words)” value is given as “not accepted as a substrate”.
For `CC(=O)CC(=O)c1ccccc1` [1-Phenyl-1,3-butandion, 1-Phenyl-1,3-butanedione], the Vmax wild-type in experiment [2] came out at 0.05. Further, the Vmax clone in experiment [3] is on record as 0.08. Moreover, in experiment [4] (substrate 1.6 mM), the Methylglyoxal/Acetate amounted to 9, the “Substrate % (remaining)” value was 24%, the Acetate % was found to be 8% and the Methylglyoxal % turned out to be 68%. In addition, the Vmaxrel. in experiment [1] (setting [7]) is on record as 0.15. The KO2 in experiment [1] (apparent) was 100 ± 15 µM. In experiment [1], the O2/Substrate is 1.0.
On to `CC(=O)CC(=O)C(=O)O` [2,4-Dioxo-pentanoic acid], for which, in experiment [1], the Vmaxrel. came to 0.00 and the “acceptance as substrate (in words)” value is given as “not cleaved”.
Consider `CCOC(=O)C(=O)CC(C)=O` [2,4-Dioxo-pentanoic-acid-ethyl-ester], for which the Vmax wild-type in experiment [2] was determined as 0.10. Besides, the Vmax clone in experiment [3] stood at 0.08. In addition, in experiment [1] (setting [7]), the Vmaxrel. is recorded as 0.09. Also, the KO2 in experiment [1] (apparent) was 91 ± 15 µM. Also, the O2/Substrate in experiment [1] was determined as 1.0.
For `CCCCCC(=O)CC(C)=O` [2,4-Nonanedione], in experiment [2], the Vmax wild-type is 0.30. Also, the Vmax clone in experiment [3] worked out at 0.25. For the same compound, in experiment [4] (substrate 4 mM), the Methylglyoxal/Acetate worked out at 1.4, the “Substrate % (remaining)” value is 17%, the Acetate % is 35% and the Methylglyoxal % was found to be 48%. In experiment [1] (setting [7]), the Vmaxrel. came out at 0.56. Further, the KO2 in experiment [1] (apparent) was 112 ± 15 µM. In experiment [1], the O2/Substrate was found to be 1.0.
As for `CCCCC(=O)CC(C)=O` [2,4-Octandion, 2,4-Octanedione], in experiment [2], the Vmax wild-type was 0.50. Moreover, the Vmax clone in experiment [3] is on record as 0.60. Also, in experiment [4] (substrate 4 mM), the Methylglyoxal/Acetate is 0.5, the “Substrate % (remaining)” value is 18%, the Acetate % worked out at 55% and the Methylglyoxal % was determined as 27%. Further, in experiment [1] (setting [7]), the Vmaxrel. came to 0.58. For the same compound, the KO2 in experiment [1] (apparent) was 85 ± 15 µM. In addition, the O2/Substrate in experiment [1] came out at 1.0.
As to `CC(=O)C1CCCCC1=O` (stereo not shown) [2-Acetocyclohexanone], the Vmax wild-type in experiment [2] was found to be 0.56. In addition, the Vmax clone in experiment [3] was determined as 0.48. For the same compound, in experiment [1], the “acceptance as substrate (in words)” value is on record as “quite good reaction rated” and the O2/Substrate is reported as 0.9. Moreover, in experiment [1] (setting [7]), the Vmaxrel. is listed as 0.58. Besides, the KO2 in experiment [1] (apparent) was 21 ± 5 µM.
In the case of `CC(=O)C1CCCC1=O` (stereo not shown) [2-Acetocyclopentanone], the Vmax wild-type in experiment [2] was 0.31. Also, the Vmax clone in experiment [3] is listed as 0.43. Also, in experiment [4] (substrate 4 mM), the Acetate % is listed as 90%. Further, in experiment [1], the “acceptance as substrate (in words)” value is recorded as “quite good reaction rated” and the O2/Substrate was found to be 1.0. The Vmaxrel. in experiment [1] (setting [7]) turned out to be 0.52. Moreover, the KO2 in experiment [1] (apparent) is 15 ± 5 µM.
Regarding `CC(=O)C(C)(C)C(C)=O` [3,3-Dimethylpentanedione], the Vmaxrel. in experiment [1] is recorded as 0.00.
Regarding `COC(C)=CC(C)=O` [4-Methoxy-3-penten-2-one], in experiment [1], the Vmaxrel. was 0.00 and the “acceptance as substrate (in words)” value is recorded as “not accepted”.
As for `CC(=O)c1ccccc1O` [(2-Hydroxyphenyl-)-ethan-1-one], the Vmaxrel. in experiment [1] turned out to be 0.00.
Take `[Cl][Cu][Cl]` [CuCl2]: in experiment [5], the “Relative activity [%] 2 min (reactivation)” value turned out to be 0% and the “Relative activity [%] 10 min (reactivation)” value turned out to be 0%.
Turning to `O=C(O)c1cc(SSc2ccc([N+](=O)[O-])c(C(=O)O)c2)ccc1[N+](=O)[O-]` [DTNB, ‘5’-Dithio-bis-(2-dinitrobenzoic acid)], the “Relative activity [%] 2 min” value in experiment [6] (setting [8]) stood at 88%. In experiment [6] (setting [9]), the “Relative activity [%] 10 min” value was 85%.
Consider `CCOC(=O)OC(=O)OCC` [Diethyl-pyrocarbonate], for which the “Relative activity [%] 2 min” value in experiment [6] (setting [8]) was 18%. For the same compound, in experiment [6] (setting [9]), the “Relative activity [%] 10 min” value worked out at 12%.
Turning to `CCN=C=NCCCN(C)C` [EDAC, 1-Ethyl-3-(3-dimethylaminopropyl)-carbodimide], the “Relative activity [%] 2 min” value in experiment [6] (setting [8]) turned out to be 100%. Besides, in experiment [6] (setting [9]), the “Relative activity [%] 10 min” value came out at 95%.
For the compound `O=C(O)CN(CCN(CC(=O)O)CC(=O)O)CC(=O)O` [EDTA], in experiment [6], the “Relative activity [%] 2 min” value was determined as 85% and the “Relative activity [%] 10 min” value is given as 36%.
As to `[Cl][Fe]([Cl])[Cl]` [FeCl3], in experiment [5], the “Relative activity [%] 2 min (reactivation)” value was found to be 0% and the “Relative activity [%] 10 min (reactivation)” value is recorded as 0%.
Consider `O=S(=O)([O-])[O-].[Fe+2]` [FeSO4], for which, in experiment [5], the “Relative activity [%] 2 min (reactivation)” value came out at 14%, the “Relative activity [%] 10 min (reactivation)” value came to 33% and the “restoration of enzyme-activity (in words)” value is “partially restores the enzyme-activity”.
In the case of `OO` [H2O2], in experiment [6], the “Relative activity [%] 2 min” value is 0%, the “Relative activity [%] 10 min” value is 0% and the “inactivation of the enzyme (in words)” value is on record as “complete inactivation”.
`O=C(O)CI` [Iodo-acetic-acid]: in experiment [6] (pH 7.5), the “Relative activity [%] 2 min” value was 100% and the “Relative activity [%] 10 min” value was found to be 72%.
Turning to `O=S(=O)([O-])[O-].[Mn+2]` [MnSO4], in experiment [5], the “Relative activity [%] 2 min (reactivation)” value is reported as 0% and the “Relative activity [%] 10 min (reactivation)” value is recorded as 0%.
Consider `[N-]=[N+]=[N-].[Na+]` [NaN3], for which, in experiment [6] (pH 7.5), the “Relative activity [%] 2 min” value was 54% and the “Relative activity [%] 10 min” value came to 38%.
For the compound `[Cl][Ni][Cl]` [NiCl2], in experiment [5], the “Relative activity [%] 2 min (reactivation)” value came to 0% and the “Relative activity [%] 10 min (reactivation)” value was determined as 0%.
Consider `O=C1CCC(=O)O1` [Succinic anhydride], for which the “Relative activity [%] 2 min” value in experiment [6] (setting [8]) was determined as 62%. The “Relative activity [%] 10 min” value in experiment [6] (setting [9]) turned out to be 23%.
Consider `O=S(=O)([O-])[O-].[Zn+2]` [ZnSO4], for which, in experiment [5], the “Relative activity [%] 2 min (reactivation)” value was found to be 0% and the “Relative activity [%] 10 min (reactivation)” value is recorded as 0%.
Turning to `Oc1ccccc1O` [catechol], the “acceptance as substrate (in words)” value in experiment [1] is “does not accept”.
Take `Cc1cccc(O)c1O` [methylcatechol]: the “acceptance as substrate (in words)” value in experiment [1] was “does not accept”.
In the case of `c1cnc2c(c1)ccc1cccnc12` [o-Phenantroline], in experiment [6], the “Relative activity [%] 2 min” value is 38% and the “Relative activity [%] 10 min” value came out at 10%.
Consider `O=C(O)c1cc[c]([Hg][OH])cc1` [p-Hydroxymercurybenzoic acid], for which, in experiment [6] (pH 7.5), the “Relative activity [%] 2 min” value stood at 56% and the “Relative activity [%] 10 min” value is 45%.
In the case of CoCl2, in experiment [5], the “Relative activity [%] 2 min (reactivation)” value came to 0% and the “Relative activity [%] 10 min (reactivation)” value was determined as 0%.

The values are drawn from patent publication US6790644B2, “1,3-dicarbonyl-dioxygenase—a new c-c-bond cleaving enzyme” (Biocatalytics, Inc., priority 2001, dated 2004).
